Measurements reported in patent US5385910A, “Gem-distributed esters of rapamycin” (American Home Products Corporation, priority 1993, dated 1995).
Several values for one entry are separate records, joined by “and”; a condition that tells them apart may be missing. Equal entries are not always repeated. Structures can show the parent of a compound that is named as a salt. Where two headings read alike, the source gives them in different places.

Key:
[1] = system: IgE-like antibodies; conditions: cited from earlier work
[2] = system: Candida albicans; conditions: in vitro and in vivo, particularly against Candida albicans; cited from earlier work
[3] = system: experimental allergic encephalomyelitis; conditions: model for multiple sclerosis; cited from earlier work
[4] = system: adjuvant arthritis; conditions: model for rheumatoid arthritis; cited from earlier work
[5] = system: thymus cells of normal BALB/c mice (PHA and IL-1 induced lymphocyte proliferation); test: comitogen-induced thymocyte proliferation procedure (LAF); type: cell-based; conditions: for IC50: read-out: LAF IC50
Method: (§1) Immunosuppressive activity for representative compounds of this invention was evaluated in an in vitro standard pharmacological test procedure to measure lymphocyte proliferation (LAF) and in three in vivo standard pharmacological test procedures. The pinch skin graft test procedure measures the immunosuppressive activity of the compound tested as well as the ability of the compound tested to inhibit or treat transplant rejection. The adjuvant arthritis standard pharmacological test procedure, which measures the ability of the compound tested to inhibit immune mediated inflammation. The adjuvant arthritis test procedure is a standard pharmacological test procedure for rheumatoid arthritis. Representative compounds of this invention were also evaluated in a heart allograft standard pharmacological test procedure which measures immunosuppressive activity of the compound tested as well as the ability of the compound tested to inhibit or treat transplant rejection. The procedures for these standard pharmacological test procedures are provided below.
The comitogen-induced thymocyte proliferation procedure (LAF) was used as an in vitro measure of the immunosuppressive effects of representative compounds. Briefly, cells from the thymus of normal BALB/c mice are cultured for 72 hours with PHA and IL-1 and pulsed with tritiated thymidine during the last six hours. Cells are cultured with and without various concentrations of rapamycin, cyclosporin A, or test compound. Cells are harvested and incorporated radioactivity is determined. Inhibition of lymphoproliferation is assessed as percent change in counts per minute from non-drug treated controls. For each compound evaluated, rapamycin was also evaluated for the purpose of comparison. An IC50 was obtained for each test compound as well as for rapamycin. […] The results obtained are provided as an IC50.

[6] = system: pinch skin graft from male BALB/c donors transplanted to male C3 H(H-2K) recipients; test: pinch skin graft survival test procedure; type: in vivo, C3 H(H-2K) recipients (mice); conditions: for Skin graft survival time (mean survival time ± S.D.): 4 mg/kg, intraperitoneally or orally, untreated grafts rejected within 6-7 days
Method: Representative compounds of this invention were also evaluated in an in vivo test procedure designed to determine the survival time of pinch skin graft from male BALB/c donors transplanted to male C3 H(H-2K) recipients. […] Briefly, a pinch skin graft from the donor was grafted on the dorsum of the recipient as a allograft, and an isograft was used as control in the same region. The recipients were treated with either varying concentrations of test compounds intraperitoneally or orally. Rapamycin was used as a test control. Untreated recipients serve as rejection control. The graft was monitored daily and observations were recorded until the graft became dry and formed a blackened scab. This was considered as the rejection day. The mean graft survival time (number of days±S.D.) of the drug treatment group was compared with the control group. […] Results are expressed as the mean survival time in days. Untreated (control) pinch skin grafts are usually rejected within 6-7 days. Compounds were tested using a dose of 4 mg/kg.

[7] = system: Freud's Complete Adjuvant induced arthritis in rats; test: adjuvant arthritis standard pharmacological test procedure; type: in vivo, male inbread Wistar Lewis rats; conditions: 5 mg/kg oral, 7 doses, day 16; more negative = more potent
Method: as §1, with “The procedures for these standard pharmacological test procedures are provided below.” left out
The adjuvant arthritis standard pharmacological test procedure measures the ability of test compounds to prevent immune mediated inflammation and inhibit or treat rheumatoid arthritis. […] Both hind paws are measured on days 16, 23, and 30. The difference in paw volume (mL) from day 16 to day 0 is determined and a percent change from control is obtained. […]

[8] = system: heart allograft from BN rat neonate donors in Lewis rats; test: heterotropic heart allograft standard pharmacological test procedure; type: in vivo; conditions: 300 μg/day, i.p.; untreated allografts rejected in about 9-10 days
Method: as §1
The ability of the compounds of this invention to induce immunosuppression and inhibit or treat transplantation rejection was evaluated in a heterotropic heart allograft standard pharmacological test procedure that emulates transplantation rejection that occurs in humans. The following briefly describes the procedure that was used. […]

[9] = thymocytes cultured 72 hours with PHA and IL-1, tritiated thymidine last six hours
[10] = thymocytes cultured 72 hours with PHA and IL-1, tritiated thymidine last six hours, maleate salt
[11] = thymocytes cultured 72 hours with PHA and IL-1, tritiated thymidine last six hours, hydrochloride salt

SMILES: CO[C@H]1C[C@@H]2CC[C@@H](C)[C@@](O)(O2)C(=O)C(=O)N2CCCC[C@H]2C(=O)O[C@H]([C@H](C)C[C@@H]2CC[C@@H](O)[C@H](OC)C2)CC(=O)[C@H](C)/C=C(\C)[C@@H](O)[C@@H](OC)C(=O)[C@H](C)C[C@H](C)/C=C/C=C/C=C/1C [rapamycin]
- formation of IgE-like antibodies (in words) [1]: effectively inhibited
- antifungal activity (in words) [2]: antifungal activity
- effect in the experimental allergic encephalomyelitis model (in words) [3]: effective
- effect in the adjuvant arthritis model (in words) [4]: effective
- IC50 ([5]; Mus musculus, Lymphocyte): 0.4 to 6.8 nM

SMILES: CO[C@H]1C[C@@H]2CC[C@@H](C)[C@@](O)(O2)C(=O)C(=O)N2CCCC[C@H]2C(=O)O[C@H]([C@H](C)C[C@@H]2CC[C@@H](OC(=O)C3(N)CCCC3)[C@H](OC)C2)CC(=O)[C@H](C)/C=C(\C)[C@@H](O)[C@@H](OC)C(=O)[C@H](C)C[C@H](C)/C=C/C=C/C=C/1C [Example 10, Rapamycin 42-ester with 1-aminocyclopentane carboxylic acid]
- IC50 [5, 9]: 6 nM
- Skin graft survival time (mean survival time ± S.D.) [6]: 10.5 ± 0.6 days and 10.2 ± 1.0 days

SMILES: CO[C@H]1C[C@@H]2CC[C@@H](C)[C@@](O)(O2)C(=O)C(=O)N2CCCC[C@H]2C(=O)O[C@H]([C@H](C)C[C@@H]2CCC(=O)[C@H](OC)C2)CC(=O)[C@H](C)/C=C(\C)[C@@H](OC(=O)CN(C)C)[C@@H](OC)C(=O)[C@H](C)C[C@H](C)/C=C/C=C/C=C/1C [Example 1, 42-Oxorapamycin-31-ester with 31-N,N-dimethylglycine]
- IC50 [5, 9]: 9.7 nM
- Skin graft survival time (mean survival time ± S.D.) [6]: 9.6 ± 0.9 days

SMILES: CO[C@H]1C[C@@H]2CC[C@@H](C)[C@@](O)(O2)C(=O)C(=O)N2CCCC[C@H]2C(=O)O[C@H]([C@H](C)C[C@@H]2CC[C@@H](OC(=O)C(C)(C)N)[C@H](OC)C2)CC(=O)[C@H](C)/C=C(\C)[C@@H](O)[C@@H](OC)C(=O)[C@H](C)C[C@H](C)/C=C/C=C/C=C/1C [Example 6, Rapamycin 42-ester with 2-amino-2-methylpropionic acid maleate salt]
- Percent change in adjuvant arthritis versus control (uninjected paw) [7]: -73%
- Heart allograft survival time (mean) [8]: 19.11 days
- IC50 [5, 10]: 5.3 nM and 8.4 nM
- Skin graft survival time (mean survival time ± S.D.) ([6]; maleate salt): 12.0 ± 0.0 days and 11.0 ± 0.9 days

SMILES: CO[C@H]1C[C@@H]2CC[C@@H](C)[C@@](O)(O2)C(=O)C(=O)N2CCCC[C@H]2C(=O)O[C@H]([C@H](C)C[C@@H]2CC[C@@H](OC(=O)C3(N)CCCCC3)[C@H](OC)C2)CC(=O)[C@H](C)/C=C(\C)[C@@H](O)[C@@H](OC)C(=O)[C@H](C)C[C@H](C)/C=C/C=C/C=C/1C [Example 14, Rapamycin 42-ester with 1-aminocyclohexane carboxylic acid]
- Skin graft survival time (mean survival time ± S.D.) [6]: 10.6 ± 0.5 days and 12.4 ± 1.1 days

SMILES: CO[C@H]1C[C@@H]2CC[C@@H](C)[C@@](O)(O2)C(=O)C(=O)N2CCCC[C@H]2C(=O)O[C@H]([C@H](C)C[C@@H]2CC[C@@H](OC(=O)C(C)(C)N)[C@H](OC)C2)CC(=O)[C@H](C)/C=C(\C)[C@@H](O)[C@@H](OC)C(=O)[C@H](C)C[C@H](C)/C=C/C=C/C=C/1C [Example 5, Rapamycin 42-ester with 2-amino-2-methylpropionic acid]
- Skin graft survival time (mean survival time ± S.D.) [6]: 12.3 ± 1.0 days and 11.8 ± 1.3 days

SMILES: CO[C@H]1C[C@@H]2CC[C@@H](C)[C@@](O)(O2)C(=O)C(=O)N2CCCC[C@H]2C(=O)O[C@H]([C@H](C)C[C@@H]2CCC(=O)[C@H](OC)C2)CC(=O)[C@H](C)/C=C(\C)[C@@H](OC(=O)CN(C)C)[C@@H](OC)C(=O)[C@H](C)C[C@H](C)/C=C/C=C/C=C/1C [Example 2, 42-Oxorapamycin-31-ester with 31-N,N-dimethylglycine hydrochloride salt]
- IC50 [5, 11]: 23.4 nM
- Skin graft survival time (mean survival time ± S.D.) ([6]; hydrochloride salt): 10.0 ± 0.0 days and 10.3 ± 0.5 days

SMILES: CO[C@H]1C[C@@H]2CC[C@@H](C)[C@@](O)(O2)C(=O)C(=O)N2CCCC[C@H]2C(=O)O[C@H]([C@H](C)C[C@@H]2CC[C@@H](OC(=O)C3(N)CCCCC3)[C@H](OC)C2)CC(=O)[C@H](C)/C=C(\C)[C@@H](O)[C@@H](OC)C(=O)[C@H](C)C[C@H](C)/C=C/C=C/C=C/1C [Example 15, Rapamycin 42-ester with 1-aminocyclohexane carboxylic acid hydrochloride salt]
- IC50 [5, 11]: 0.7 nM and 0.4 nM
- Skin graft survival time (mean survival time ± S.D.) ([6]; hydrochloride salt): 11.5 ± 1.2 days and 11.2 ± 0.8 days

SMILES: CO[C@H]1C[C@@H]2CC[C@@H](C)[C@@](O)(O2)C(=O)C(=O)N2CCCC[C@H]2C(=O)O[C@H]([C@H](C)C[C@@H]2CC[C@@H](OC(=O)C3(N)CCCC3)[C@H](OC)C2)CC(=O)[C@H](C)/C=C(\C)[C@@H](O)[C@@H](OC)C(=O)[C@H](C)C[C@H](C)/C=C/C=C/C=C/1C [Example 11, Rapamycin 42-ester with 1-aminocyclopentane carboxylic acid hydrochloride salt]
- IC50 [5, 11]: 0.63 nM
- Skin graft survival time (mean survival time ± S.D.) ([6]; hydrochloride salt): 10.3 ± 0.5 days and 11.5 ± 0.8 days and 12.3 ± 1.0 days

SMILES: CO[C@H]1C[C@@H]2CC[C@@H](C)[C@@](O)(O2)C(=O)C(=O)N2CCCC[C@H]2C(=O)O[C@H]([C@H](C)C[C@@H]2CCC(=O)[C@H](OC)C2)CC(=O)[C@H](C)/C=C(\C)[C@@H](OC(=O)CN(C)C)[C@@H](OC)C(=O)[C@H](C)C[C@H](C)/C=C/C=C/C=C/1C [Example 3, 42-Oxorapamycin-31-ester with 31-N,N-dimethylglycine maleate salt]
- IC50 [5, 10]: 14.4 nM
- Skin graft survival time (mean survival time ± S.D.) ([6]; maleate salt): 9.2 ± 1.3 days

SMILES: CO[C@H]1C[C@@H]2CC[C@@H](C)[C@@](O)(O2)C(=O)C(=O)N2CCCC[C@H]2C(=O)O[C@H]([C@H](C)C[C@@H]2CC[C@@H](OC(=O)C(C)(C)N)[C@H](OC)C2)CC(=O)[C@H](C)/C=C(\C)[C@@H](O)[C@@H](OC)C(=O)[C@H](C)C[C@H](C)/C=C/C=C/C=C/1C [Example 7, Rapamycin 42-ester with 2-amino-2,-methylpropionic acid hydrochloride salt]
- IC50 [5, 11]: 3.9 nM
- Skin graft survival time (mean survival time ± S.D.) ([6]; hydrochloride salt): 10.2 ± 1.2 days

SMILES: CO[C@H]1C[C@@H]2CC[C@@H](C)[C@@](O)(O2)C(=O)C(=O)N2CCCC[C@H]2C(=O)O[C@H]([C@H](C)C[C@@H]2CC[C@@H](OC(=O)C(C)(C)NC(=O)OCC3c4ccccc4-c4ccccc43)[C@H](OC)C2)CC(=O)[C@H](C)/C=C(\C)[C@@H](O)[C@@H](OC)C(=O)[C@H](C)C[C@H](C)/C=C/C=C/C=C/1C [Example 4, Rapamycin 42-ester with 2-(9H-fluoren-9-ylmethoxycarbonylamino)-2-methylpropionic acid]
- immunosuppressive activity in the LAF procedure (in words) [5]: shown to have immunosuppressive activity
- Skin graft survival time (mean survival time ± S.D.) [6]: 11.7 ± 0.8 days and 14.2 ± 0.6 days
- immunosuppressive activity in the skin graft procedure (in words) ([6]; mouse, in vivo): shown to have immunosuppressive activity
